What is called IC50 is the midpoint of a concentration-inhibition curve.

SMILES strings stand for the structures. Bounds are passed on as bounds.

The assay addresses MLK3 (Homo sapiens (Human), UniProt Q16584). Briefly: Radiometric filter plate MLK3 assay. Conditions: 2 μM cold ATP (Km), 1 μM inactive MKK7b, twenty minute incubation; read-out: MK3 IC50. The assay is classed as biochemical. The method, then: After a twenty minute incubation, the reactions were washed through filter plates and read on a scintillation counter. Results are shown in Table 9 below, in which +++ indicates ≤0.1 μM, ++ indicates >0.1 μM and ≤1 μM, and + indicates >1 μM.

MLK3, sequence (Q16584 whole entry): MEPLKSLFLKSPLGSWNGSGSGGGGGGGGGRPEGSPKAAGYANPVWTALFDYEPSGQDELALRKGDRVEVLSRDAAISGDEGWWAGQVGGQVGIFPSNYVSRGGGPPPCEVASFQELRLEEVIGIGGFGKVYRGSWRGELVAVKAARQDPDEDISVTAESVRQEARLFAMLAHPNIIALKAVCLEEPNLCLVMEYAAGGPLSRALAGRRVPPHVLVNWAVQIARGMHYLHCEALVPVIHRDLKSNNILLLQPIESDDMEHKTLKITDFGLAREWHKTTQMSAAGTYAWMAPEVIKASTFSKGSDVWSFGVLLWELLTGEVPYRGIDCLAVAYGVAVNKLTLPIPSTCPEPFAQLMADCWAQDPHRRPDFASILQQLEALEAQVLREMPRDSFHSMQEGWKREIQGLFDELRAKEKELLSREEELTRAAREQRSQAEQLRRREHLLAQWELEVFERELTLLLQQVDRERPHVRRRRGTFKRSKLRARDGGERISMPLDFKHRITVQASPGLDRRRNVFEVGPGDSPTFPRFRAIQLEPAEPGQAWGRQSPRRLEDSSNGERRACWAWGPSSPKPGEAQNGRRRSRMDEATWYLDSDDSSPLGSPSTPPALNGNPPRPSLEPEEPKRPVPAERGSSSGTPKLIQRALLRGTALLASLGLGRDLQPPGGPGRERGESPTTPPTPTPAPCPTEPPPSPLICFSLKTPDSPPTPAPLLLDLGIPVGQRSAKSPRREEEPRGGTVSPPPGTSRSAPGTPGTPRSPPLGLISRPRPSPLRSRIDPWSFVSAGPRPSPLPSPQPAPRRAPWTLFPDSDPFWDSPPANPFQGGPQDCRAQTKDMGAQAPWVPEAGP

Turning to `CC(=O)Nc1ccc(-c2cnc3[nH]cc(-c4ccc5[nH]ccc5c4)c3c2)cc1` [Example 3, N-(4-(3-(1H-indol-5-yl)-1H-pyrrolo[2,3-b]pyridin-5-yl)phenyl)acetamide], the IC50 is under 100 nM.

Consider `COc1cc(-c2cnc3[nH]cc(-c4ccc5[nH]ccc5c4)c3c2)ccc1N` [Example 5, 4-(3-(1H-indol-5-yl)-1H-pyrrolo[2,3-b]pyridin-5-yl)-2-methoxyaniline], for which the IC50 is under 100 nM.

For `CN1CCN(c2cc(-c3cnc4[nH]cc(-c5ccc6[nH]ccc6c5)c4c3)ccn2)CC1` [Example 7, 3-(1H-indol-5-yl)-5-(2-(4-methylpiperazin-1-yl)pyridin-4-yl)-1H-pyrrolo[2,3-b]pyridine], the IC50 was under 100 nM.

`Nc1ccc(-c2cnc3[nH]cc(-c4ccc5[nH]ccc5c4)c3c2)cc1` [Example 8, 4-(3-(1H-indol-5-yl)-1H-pyrrolo[2,3-b]pyridin-5-yl)aniline]: the IC50 was under 100 nM.

As for `CS(=O)(=O)Nc1ccc(-c2cnc3[nH]cc(-c4ccc5[nH]ccc5c4)c3c2)cc1` [Example 11, N-(4-(3-(1H-indol-5-yl)-1H-pyrrolo[2,3-b]pyridin-5-yl)phenyl)methanesulfonamide], the IC50 was under 100 nM.

In the case of `COc1cc(-c2cnc3[nH]cc(-c4ccc(N)cc4)c3c2)cc(OC)c1OC` [Example 15, 4-(5-(3,4,5-trimethoxyphenyl)-1H-pyrrolo[2,3-b]pyridin-3-yl)aniline], the IC50 is under 100 nM.

Regarding `COc1cc(-c2cnc3[nH]cc(-c4ccc(NC(C)=O)cc4)c3c2)cc(OC)c1OC` [Example 16, N-(4-(5-(3,4,5-trimethoxyphenyl)-1H-pyrrolo[2,3-b]pyridin-3-yl)phenyl)acetamide], the half-maximal inhibitory concentration (IC50) is under 100 nM.

As to `COc1cc(-c2cnc3[nH]cc(-c4ccc(N(C)C)nc4)c3c2)cc(OC)c1OC` [Example 19, N,N-dimethyl-5-(5-(3,4,5-trimethoxyphenyl)-1H-pyrrolo[2,3-b]pyridin-3-yl)pyridin-2-amine], the IC50 is under 100 nM.

Consider `Nc1ncc(-c2cnc3[nH]cc(-c4cnc(N)nc4)c3c2)cn1` [Example 20, 5,5′-(1H-pyrrolo[2,3-b]pyridine-3,5-diyl)dipyrimidin-2-amine], for which the IC50 is over 1000 nM.

`CN(C)c1ccc(-c2cnc3[nH]cc(-c4ccc(F)c(Cl)c4)c3c2)cn1` [Example 22, 5-(3-(3-chloro-4-fluorophenyl)-1H-pyrrolo[2,3-b]pyridin-5-yl)-N,N-dimethylpyridin-2-amine]: the IC50 was over 1000 nM.

Turning to `COc1cc(-c2cnc3[nH]cc(-c4ccc5c(ccn5C)c4)c3c2)cc(OC)c1OC` [Example 24, 3-(1-methyl-1H-indol-5-yl)-5-(3,4,5-trimethoxyphenyl)-1H-pyrrolo[2,3-b]pyridine], the IC50 was under 100 nM.

For `COc1cc(-c2cnc3[nH]cc(-c4ccc(C(N)=O)cc4)c3c2)cc(OC)c1OC` [Example 25, 4-(5-(3,4,5-trimethoxyphenyl)-1H-pyrrolo[2,3-b]pyridin-3-yl)benzamide], the IC50 was under 100 nM.

For the compound `COc1ccc(-c2cnc3[nH]cc(-c4ccc(C(N)=O)cc4)c3c2)cc1OC` [Example 26, 4-(5-(3,4-dimethoxyphenyl)-1H-pyrrolo[2,3-b]pyridin-3-yl)benzamide], the IC50 was under 100 nM.

For the compound `Nc1ccc(-c2cnc3[nH]cc(-c4ccc(F)c(Cl)c4)c3c2)cn1` [Example 29, 5-(3-(3-chloro-4-fluorophenyl)-1H-pyrrolo[2,3-b]pyridin-5-yl)pyridin-2-amine], the IC50 is over 1000 nM.

As to `CN(C)Cc1ccc(-c2cnc3[nH]cc(-c4ccc5[nH]ccc5c4)c3c2)cc1` [Example 33, 1-(4-(3-(1H-indol-5-yl)-1H-pyrrolo[2,3-b]pyridin-5-yl)phenyl)-N,N-dimethylmethanamine], the IC50 was under 100 nM.

Regarding `COc1cc(-c2cnc3[nH]cc(-c4ccc5[nH]ccc5c4)c3c2)ccc1OCCN1CCNCC1` [Example 34, 3-(1H-indol-5-yl)-5-(3-methoxy-4-(2-(piperazin-1-yl)ethoxy)phenyl)-1H-pyrrolo[2,3-b]pyridine], the IC50 was under 100 nM.

Consider `COc1cc(-c2cnc3[nH]cc(-c4ccc5[nH]ccc5c4)c3c2)ccc1OCCN(C)C` [Example 35, 2-(4-(3-(1H-indol-5-yl)-1H-pyrrolo[2,3-b]pyridin-5-yl)-2-methoxyphenoxy)-N,N-dimethylethanamine], for which the IC50 is over 1000 nM.

In the case of `COc1ccc(-c2cnc3[nH]cc(-c4ccc5[nH]ccc5c4)c3n2)cc1OC` [Example 37, 2-(3,4-dimethoxyphenyl)-7-(1H-indol-5-yl)-5H-pyrrolo[3,2-b]pyrazine], the IC50 was under 100 nM.

In the case of `COc1cc(-c2cnc3[nH]cc(-c4ccc5[nH]ccc5c4)c3n2)ccc1N` [Example 38, 4-(7-(1H-indol-5-yl)-5H-pyrrolo[3,2-b]pyrazin-2-yl)-2-methoxyaniline], the IC50 is under 100 nM.

In the case of `COc1cc(-c2cnc3[nH]cc(-c4ccc5[nH]ccc5c4)c3n2)ccc1OCCN1CCOCC1` [Example 39, 4-(2-(4-(7-(1H-indol-5-yl)-5H-pyrrolo[3,2-b]pyrazin-2-yl)-2-methoxyphenoxy)ethyl)morpholine], the IC50 is under 100 nM.

As to `COc1cc(-c2cnc3[nH]c(=O)n(-c4ccc5[nH]ccc5c4)c3n2)cc(OC)c1OC` [Example 40, 1-(1H-indol-5-yl)-6-(3,4,5-trimethoxyphenyl)-1H-imidazo[4,5-b]pyrazin-2(3H)-one], the 50% inhibitory concentration (IC50) is under 100 nM.

Regarding `Cn1ccc2cc(-n3c(=O)[nH]c4ncc(-c5ccc(O)cc5)nc43)ccc21` [Example 42, 6-(4-hydroxyphenyl)-1-(1-methyl-1H-indol-5-yl)-1H-imidazo[4,5-b]pyrazin-2(3H)-one], the IC50 is over 1000 nM.

In the case of `Cc1cc(C)cc(-c2cnc3[nH]c(=O)n(-c4ccc5c(ccn5C)c4)c3n2)c1` [Example 43, 6-(3,5-dimethylphenyl)-1-(1-methyl-1H-indol-5-yl)-1H-imidazo[4,5-b]pyrazin-2(3H)-one], the IC50 is over 1000 nM.

Take `O=c1[nH]c2ncc(-c3ccncc3)nc2n1-c1ccc2[nH]ccc2c1` [Example 44, 1-(1H-indol-5-yl)-6-(pyridin-4-yl)-1H-imidazo[4,5-b]pyrazin-2(3H)-one]: the IC50 was over 1000 nM.

On to `Cc1cc(C)cc(-c2cnc3[nH]c(=O)n(-c4ccc5[nH]ccc5c4)c3n2)c1` [Example 46, 6-(3,5-dimethylphenyl)-1-(1H-indol-5-yl)-1H-imidazo[4,5-b]pyrazin-2(3H)-one], for which the IC50 is over 1000 nM.

As for `O=c1[nH]c2ncc(-c3cc(Cl)cc(Cl)c3)nc2n1-c1ccc2[nH]ccc2c1` [Example 48, 6-(3,5-dichlorophenyl)-1-(1H-indol-5-yl)-1H-imidazo[4,5-b]pyrazin-2(3H)-one], the IC50 is over 1000 nM.

Regarding `COc1ccc(-c2cnc3[nH]c(=O)n(-c4ccc5[nH]ccc5c4)c3n2)cc1F` [Example 49, 6-(3-fluoro-4-methoxyphenyl)-1-(1H-indol-5-yl)-1H-imidazo[4,5-b]pyrazin-2(3H)-one], the IC50 is over 1000 nM.

In the case of `COc1cc(-c2cnc3[nH]c(=O)n(-c4ccc5[nH]ccc5c4)c3n2)ccc1O` [Example 55, 6-(4-hydroxy-3-methoxyphenyl)-1-(1H-indol-5-yl)-1H-imidazo[4,5-b]pyrazin-2(3H)-one], the IC50 was under 100 nM.

Regarding `O=c1[nH]c2ncc(-c3ccc4cc[nH]c4c3)nc2n1-c1ccc2[nH]ccc2c1` [Example 56, 1-(1H-indol-5-yl)-6-(1H-indol-6-yl)-1H-imidazo[4,5-b]pyrazin-2(3H)-one], the IC50 is over 1000 nM.

In the case of `COc1cc(-c2cnc3[nH]c(=O)n(-c4ccc5[nH]ccc5c4)c3n2)ccc1OCCN1CCOCC1` [Example 57, 1-(1H-indol-5-yl)-6-(3-methoxy-4-(2-morpholinoethoxy)phenyl)-1H-imidazo[4,5-b]pyrazin-2(3H)-one], the IC50 was under 100 nM.

As to `O=c1[nH]c2ncc(-c3cc(F)c(O)c(F)c3)nc2n1-c1ccc2[nH]ccc2c1` [Example 59, 6-(3,5-difluoro-4-hydroxyphenyl)-1-(1H-indol-5-yl)-1H-imidazo[4,5-b]pyrazin-2(3H)-one], the IC50 was under 100 nM.

Turning to `COc1cc(-c2cnc3[nH]c(=O)n(-c4ccc5[nH]ccc5c4)c3n2)ccc1N` [Example 60, 6-(4-amino-3-methoxyphenyl)-1-(1H-indol-5-yl)-1H-imidazo[4,5-b]pyrazin-2(3H)-one], the 50% inhibitory concentration (IC50) was under 100 nM.

In the case of `O=c1[nH]c2ncc(-c3cc(F)cc(F)c3)nc2n1-c1ccc2[nH]ccc2c1` [Example 61, 6-(3,5-difluorophenyl)-1-(1H-indol-5-yl)-1H-imidazo[4,5-b]pyrazin-2(3H)-one], the IC50 is over 1000 nM.

With `COc1cc(-c2cnc3[nH]c(=O)n(-c4ccc5[nH]ccc5c4)c3n2)cc(OC)c1O` [Example 62, 6-(4-hydroxy-3,5-dimethoxyphenyl)-1-(1H-indol-5-yl)-1H-imidazo[4,5-b]pyrazin-2(3H)-one], the IC50 is under 100 nM.

For the compound `COc1cc(OC)cc(-c2cnc3[nH]c(=O)n(-c4ccc5[nH]ccc5c4)c3n2)c1` [Example 65, 6-(3,5-dimethoxyphenyl)-1-(1H-indol-5-yl)-1H-imidazo[4,5-b]pyrazin-2(3H)-one], the half-maximal inhibitory concentration (IC50) is over 1000 nM.

As for `CN1CCN(c2cc(-c3cnc4[nH]c(=O)n(-c5ccc6[nH]ccc6c5)c4n3)ccn2)CC1` [Example 66, 1-(1H-indol-5-yl)-6-(2-(4-methylpiperazin-1-yl)pyridin-4-yl)-1H-imidazo[4,5-b]pyrazin-2(3H)-one], the IC50 is over 1000 nM.

Regarding `COc1ccc(-n2c(=O)[nH]c3ncc(-c4ccc(OC)c(OC)c4)nc32)cc1` [Example 69, 6-(3,4-dimethoxyphenyl)-1-(4-methoxyphenyl)-1H-imidazo[4,5-b]pyrazin-2(3H)-one], the IC50 is over 1000 nM.

As to `COc1ccc(-n2c(=O)[nH]c3ncc(-c4ccc(O)cc4)nc32)cc1` [Example 70, 6-(4-hydroxyphenyl)-1-(4-methoxyphenyl)-1H-imidazo[4,5-b]pyrazin-2(3H)-one], the IC50 is over 1000 nM.

In the case of `COc1ccc(-n2c(=O)[nH]c3ncc(-c4ccncc4)nc32)cc1` [Example 71, 1-(4-methoxyphenyl)-6-(pyridin-4-yl)-1H-imidazo[4,5-b]pyrazin-2(3H)-one], the IC50 was over 1000 nM.
